Assay results from US4332891A, “Process for the production of antibiotic Cephamycin C” (Otsuka Pharmaceutical Co., Ltd., priority 1979, dated 1982).
In brackets after ≈: the same amount, converted by molar mass.

How the values were obtained:
[1] = tested on: Staphylococcus aureus FDA 209P; experiment: Antimicrobial spectrum (MIC); assay type: cell-based; conditions: FDA209P
Description: (§1) The antimicrobial spectra to various microorganisms of the Cephamycin C produced by the process of this invention are shown as minimum inhibitory concentrations (MIC) in Table 4.

[2] = tested on: Proteus mirabilis 1287; experiment: Antimicrobial spectrum (MIC); assay type: cell-based
Description: as §1

[3] = tested on: Esherichia coli NIHJ; experiment: Antimicrobial spectrum (MIC); assay type: cell-based
Description: as §1

[4] = tested on: Sarcina lutea PCI 1001; experiment: Antimicrobial spectrum (MIC); assay type: cell-based; conditions: Micrococcus luteus, PCI1001
Description: as §1

[5] = tested on: Proteus vulgaris IID OX-19; experiment: Antimicrobial spectrum (MIC); assay type: cell-based; conditions: IIDOX19
Description: as §1

[6] = tested on: Salmonella typhi 0-901 NCTC 8393; experiment: Antimicrobial spectrum (MIC); assay type: cell-based; conditions: Salmonella enterica
Description: as §1

[7] = tested on: Staphylococcus aureus Newman; experiment: Antimicrobial spectrum (MIC); assay type: cell-based
Description: as §1

[8] = tested on: Bacillus subtilis PCI 219; experiment: Antimicrobial spectrum (MIC); assay type: cell-based; conditions: PCI219
Description: as §1

[9] = Solubility; assay type: physicochemical

**Q.** With COC1(NC(=O)CCCC(N)C(=O)O)C(=O)N2C(C(=O)O)=C(COC(N)=O)CS[C@@H]21 (some centres unmarked) [Cephamycin C, 7-(5-amino-5-carboxyvalerylamino)-3-carbamoyloxymethyl-7-methoxy-3-cephem-4-carboxylic acid] as the compound, how does the MIC [1] read?
**A.** The MIC was 250 µg/mL (≈ 560 µM).

**Q.** What about the MIC [2] of the same compound?
**A.** Its MIC is 7.8 µg/mL (≈ 17.5 µM).

**Q.** And the MIC [3]?
**A.** The MIC was 15.6 µg/mL (≈ 34.9 µM).

**Q.** What about the MIC [4] of the same compound?
**A.** The MIC was 15.6 µg/mL (≈ 34.9 µM).

**Q.** What about the MIC [5] of the same compound?
**A.** The MIC was 7.8 µg/mL (≈ 17.5 µM).

**Q.** What about the MIC [6] of the same compound?
**A.** Its MIC is 3.9 µg/mL (≈ 8.74 µM).

**Q.** What about the MIC [7] of the same compound?
**A.** Its MIC is 250 µg/mL (≈ 560 µM).

**Q.** And the MIC [8]?
**A.** The MIC was 15.6 µg/mL (≈ 34.9 µM).

**Q.** What about the Solubility ([9]; in dimethylsulfoxide) of the same compound?
**A.** Its Solubility is “slightly soluble in dimethylsulfoxide”.

**Q.** What about the Solubility ([9]; in ethanol) of the same compound?
**A.** Its Solubility is “sparingly soluble in ethanol”.

**Q.** What about the Solubility ([9]; in water) of the same compound?
**A.** The Solubility was “well soluble in water”.
